Test [1] has as its system secreted IL-8 by whole blood activated with TNF-α. Put plainly: Inhibition of TNF-α induced IL-8 in 50% human whole blood. The test is classed as cell-based. As to the method: Inhibition of TNF-α Induced IL-8 in 50% Human Whole Blood
Test compounds were evaluated in vitro for the ability to inhibit the production of secreted IL-8 by whole blood activated with TNF-α. Fresh human whole blood was obtained from healthy, non-medicated volunteers in sodium heparin tubes.
Compound Dilution—Assay Procedure
Test compounds are serially diluted 1:3 in DMSO and then diluted 1:250 into R10 (RPMI 1640, 10% human serum AB, 1× pen/strep/glutamine) to the 4× working concentration to be used in the assay. 100 ul heparinized whole blood is plated into wells of 96 well flat bottom plates. 50 ul of either 4× compound or DMSO control (Final DMSO concentration is 0.1%) are added to the appropriate wells. Plates are incubated for 1 hour at 37 degrees Celsius. 50 ul of 4× TNF-α (4 nM TNF-α, for a final concentration of 1 nM) or control (media alone) is added to the appropriate wells (Total volume=200 ul). Plates are incubated overnight (16-18 hours). 100 ul of supernatant is collected and stored in 96-well round bottom polypropylene plates at −80 degrees Celsius or assayed immediately for IL-8.
Cytokines are measured on antibody (Ab) sandwich ECL based 96-well detection plates. 20 ul of supernatant are added to plate and plate is sealed and shaken at RT for 1 hour. 130 ul of detection Ab cocktail is added and plates are sealed and shaken for 1 hour in the dark at RT. Plates are read on MSD Sector HTS instrument. Data are analyzed and IC50 values generated using Activity Base and Xl-fit programs.

The test system of test [2] is TNF-α secretion by LPS-treated THP1 cells. Put plainly: Lipopolysaccharide-activated THP1 cell TNF production assay. The test is classed as cell-based. To be noted: Homo sapiens, THP-1, 3 hours, read-out: IC50 in the THP-1 cellular TNF production assay. As to the method:
Lipopolysaccharide-Activated THP1 Cell TNF Production Assay
THP1 cells were resuspended in fresh THP1 media (RPMI 1640, 10% heat-inactivated FBS, 1×PGS, 1×NEAA, plus 30 μM βME) at a concentration of 1.5×10^6 cells per mL. One hundred microliters of cells per well were plated in a polystyrene 96-well tissue culture plate. 1.5 micrograms per mL of bacterial LPS was prepared in THP1 media and transferred to the first 11 columns of a 96-well polypropylene plate. Column 12 contained only THP1 media for the LO control. Compounds were dissolved in 100% DMSO and serially diluted 3 fold in a polypropylene 96-well microtiter plate (drug plate). Columns 6 and 12 were reserved as controls (HI controls and LO controls respectively) and contained only DMSO. 10 μL of LPS followed by one microliter of inhibitor compound from the drug plate was transferred to the cell plate. The treated cells were induced to synthesize and secrete TNF-α in a 37° C. humidified incubator with 5% CO2 for 3 hours. Fifty microliters of conditioned media was transferred to a 96-well MULTI-ARRAY™ 96-well small spot plate—custom coated with MAB610 containing 100 μL of 2× Read Buffer P supplemented with 0.34 nM AF210NA polyclonal Ab labeled with ruthenium (MSD-Sulfo-TAG™—NHS ester). After an overnight incubation at room temperature with shaking, the reaction was read on the Sector Imager™ 6000. […] The amount of secreted TNF-α in the presence of AMG compounds compared with that in the presence of DMSO vehicle alone (HI control) was calculated using the formula: % control (POC)=(cpd−average LO)/(average HI−averageLO)*100. Data (consisting of POC and inhibitor concentration in μM) was fitted to a 4-parameter equation (y=A+((B−A)/(1+((x/C)^D))), where A is the minimum y (POC) value, B is the maximum y (POC), C is the x (cpd concentration) at the point of inflection and D is the slope factor) using a Levenburg-Marquardt non-linear regression algorithm.

Setting [3] is: 50% human whole blood, TNF-α (1 nM final) induced IL-8, 16-18 hours, read-out: WB TNF/IL8 IC50.
Setting [4] is: Homo sapiens, read-out: IC50, TNF-α induced IL-8 in 50% human whole blood.

Read-outs that look alike come from different tables or passages of the source.

For the compound `Cc1ccc2c(NC3CC3)noc2c1-c1cc2cnn(-c3c(F)cccc3F)c2n(C)c1=O` [Example 1, 5-(3-(cyclopropylamino)-6-methylbenzo[d]isoxazol-7-yl)-1-(2,6-difluorophenyl)-7-methyl-1H-pyrazolo[3,4-b]pyridin-6(7H)-one], the IC50 in test [1] (setting [3]) is 0.0011 µM; in test [1] (setting [4]), not above 0.1 µM; in test [2] it was not above 0.1 µM.
For `CNc1noc2c(-c3cc4cnn(-c5c(F)cccc5F)c4n(C)c3=O)c(C)ccc12` [Example 5, 1-(2,6-difluorophenyl)-7-methyl-5-(6-methyl-3-(methylamino)-1,2-benzisoxazol-7-yl)-1,7-dihydro-6H-pyrazolo[3,4-b]pyridin-6-one], the IC50 is 0.0027 µM in test [1] (setting [3]), not above 0.1 µM in test [1] (setting [4]) and not above 0.1 µM in test [2].
